In assay [1] the test system is LPS induced IL-23 (p19/p40) in DC cells differentiated from human PBMC. The experiment in a line: IL23-p19 ELISA, dendritic cells (DC differentiated from human PBMC), IFNγ primed, LPS stimulated. The assay is classed as cell-based. The settings on record: human PBMC-derived dendritic cells, 1 μg/ml LPS, 18 hours, 10 pt. Summed up:
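Human PBMC-derived DCs (GM-CSF 100 ng/ml + IL-4 20 ng/ml, 7 days) were primed 24 h with IFNγ 50 ng/ml, pre-incubated 1 h with compound, then stimulated 18 h with LPS 1 μg/ml at 37° C. Supernatant IL-23 was measured by sandwich chemiluminescent ELISA (anti-p19 capture, anti-p40 detection); cytotoxicity was checked by CellTiter-Glo.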

In assay [2] the test system is LPS induced IL23p19 in THP-1 cells. Nature of the assay: LPS Induced IL23p19 in THP-1 Cells (with IFNγ Primed) Assay. The settings on record: Homo sapiens; THP-1 cells primed with IFNγ 50 ng/mL, 1 μg/mL LPS, 18 hours, 10 pt; read-out: IL23-p19 ELISA, THP1-IFNy, LPS, 10 pt EC50. The assay is classed as cell-based. Summed up:
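THP-1 cells were primed with IFNγ (50 ng/mL, ~18 h), pre-incubated 1 h with compound, then stimulated 18 h with 1 μg/mL LPS at 37° C. Supernatant IL-23p19 was measured by chemiluminescent sandwich ELISA, and EC50 was fitted. Toxicity was checked on the remaining cells with Cell Titer Glo.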

With `O=C(Nc1ccc(CN2CCOCC2)cc1N1CCCCC1)c1csc(-c2cn[nH]c2)n1` [I-50, N-(4-(morpholinomethyl)-2-(piperidin-1-yl)phenyl)-2-(1H-pyrazol-4-yl)thiazole-4-carboxamide], the results for the half-maximal effective concentration (EC50) in assay [1] and in assay [2] were 0.0717 µM and 0.13 µM, respectively.
For the compound `O=C(Nc1ccc(CC(=O)N2CCOCC2)cc1N1CCCCC1)c1cccc(-c2cn[nH]c2)n1` [I-51, N-(4-(2-morpholino-2-oxoethyl)-2-(piperidin-1-yl)phenyl)-6-(1H-pyrazol-4-yl)picolinamide], the 50% effective concentration (EC50) – broadly, the concentration needed to bring the measured effect to its halfway point – in assay [1] worked out at 0.154 µM; in assay [2], 0.0656 µM.
The like results for `O=C(Nc1ccc(CC(=O)N2CCOCC2)cc1N1CCCCC1)c1ccc(-c2cn[nH]c2)o1` [I-52, N-(4-(2-morpholino-2-oxoethyl)-2-(piperidin-1-yl)phenyl)-5-(1H-pyrazol-4-yl)furan-2-carboxamide] were, in that order, 3.17 µM and 1.06 µM.
Turning to `O=C(Nc1ccc(CC(=O)N2CCOCC2)cc1N1CCCCC1)c1csc(-c2cn[nH]c2)n1` [I-53, N-(4-(2-morpholino-2-oxoethyl)-2-(piperidin-1-yl)phenyl)-2-(1H-pyrazol-4-yl)thiazole-4-carboxamide], the concentration for a half-maximal effect (EC50) in assay [1] is 0.409 µM; in assay [2] it was 0.167 µM.
The like results for `O=C(Nc1ccc(CCN2CCOCC2)cc1N1CCCCC1)c1cccc(-c2cn[nH]c2)n1` [I-54, N-(4-(2-morpholinoethyl)-2-(piperidin-1-yl)phenyl)-6-(1H-pyrazol-4-yl)picolinamide] were, in that order, 0.163 µM and 0.093 µM.
Consider `O=C(Nc1ccc(CCN2CCOCC2)cc1N1CCCCC1)c1csc(-c2cn[nH]c2)n1` [I-56, N-(4-(2-morpholinoethyl)-2-(piperidin-1-yl)phenyl)-2-(1H-pyrazol-4-yl)thiazole-4-carboxamide], for which the values for the 50% effective concentration (EC50) in assay [1] and in assay [2] were 9.56 µM and 2.37 µM, respectively.
The matching figures for `O=C(Nc1cc(C(=O)N2CCOCC2)ccc1N1CCCCC1)c1cccc(-c2cn[nH]c2)n1` [I-57, N-(5-(morpholine-4-carbonyl)-2-(piperidin-1-yl)phenyl)-6-(1H-pyrazol-4-yl)picolinamide]: 1.15 µM and 0.498 µM.
As for `O=C(Nc1cc(C(=O)N2CCOCC2)ccc1N1CCCCC1)c1ccc(-c2cn[nH]c2)o1` [I-58, N-(5-(morpholine-4-carbonyl)-2-(piperidin-1-yl)phenyl)-5-(1H-pyrazol-4-yl)furan-2-carboxamide], the figures for the EC50 in assay [1] and in assay [2] were 5.6 µM and 1.5 µM, respectively.
The matching figures for `O=C(Nc1cc(C(=O)N2CCOCC2)ccc1N1CCCCC1)c1csc(-c2cn[nH]c2)n1` [I-59, N-(5-(morpholine-4-carbonyl)-2-(piperidin-1-yl)phenyl)-2-(1H-pyrazol-4-yl)thiazole-4-carboxamide]: 0.294 µM and 0.253 µM.
The like results for `O=C(Nc1cc(CN2CCOCC2)ccc1N1CCCCC1)c1ccc(-c2cn[nH]c2)o1` [I-61, N-(5-(morpholinomethyl)-2-(piperidin-1-yl)phenyl)-5-(1H-pyrazol-4-yl)furan-2-carboxamide] were, in that order, 3.84 µM and 0.767 µM.
The like results for `O=C(Nc1cc(CN2CCOCC2)ccc1N1CCCCC1)c1csc(-c2cn[nH]c2)n1` [I-62, N-(5-(morpholinomethyl)-2-(piperidin-1-yl)phenyl)-2-(1H-pyrazol-4-yl)thiazole-4-carboxamide] were, in that order, 0.311 µM and 0.306 µM.
Turning to `O=C(Nc1cc(CC(=O)N2CCOCC2)ccc1N1CCCCC1)c1cccc(-c2cn[nH]c2)n1` [I-63, N-(5-(2-morpholino-2-oxoethyl)-2-(piperidin-1-yl)phenyl)-6-(1H-pyrazol-4-yl)picolinamide], the 50% effective concentration (EC50) in assay [1] was found to be 0.16 µM; in assay [2], 0.15 µM.
The like results for `O=C(Nc1cc(CC(=O)N2CCOCC2)ccc1N1CCCCC1)c1ccc(-c2cn[nH]c2)o1` [I-64, N-(5-(2-morpholino-2-oxoethyl)-2-(piperidin-1-yl)phenyl)-5-(1H-pyrazol-4-yl)furan-2-carboxamide] were, in that order, 1.32 µM and 3.68 µM.

(Values after patent US10590121B2, “Kinase inhibitors and methods for making and using” (Rigel Pharmaceuticals, Inc., priority 2017, dated 2020).)
